For three molecules, IC50 and Agonistic activity results are on record in US10485880B2, “Antibody-drug conjugates (ADCs) of KSP inhibitors with aglycosylated anti-TWEAKR antibodies” (Bayer Pharma Aktiengesellschaft, priority 2015, dated 2019).

Test [1] deals with NCI-H292 cells. The test is described as follows: Cytotoxicity of metabolites, MTT assay, NCI-H292. It is filed as cell-based, human. On the procedure: NCI-H292: human mucoepidermoid lung carcinoma cells, ATCC-CRL-1848, standard medium: RPMI 1640 (Biochrom; #FG1215, stab. glutamine)+10% FCS (Biochrom; #S0415), TWEAKR-positive, EGFR-positive.
The cells were cultivated according to the standard method using the growth media listed under C-1. The test is carried out by detaching the cells with a solution of Accutase in PBS (Biochrom AG #L2143), pelleting, resuspending in culture medium, counting and sowing into a 96-well culture plate with white bottom (Costar #3610) (NCI H292: 2500 cells/well, KPL-4: 1200 cells/well, LoVo: 1000 cells/well in a total volume of 100 μl). The cells were then incubated in an incubator at 37° C. and 5% carbon dioxide. After 48 h, the medium was replaced. The metabolites in 10 μl of culture medium in concentrations from 10^−5M to 10^−13M were then pipetted to the cells (in triplicate), and the assay was then incubated in an incubator at 37° C. and 5% carbon dioxide. […] To this end, the MTT reagent was incubated with the cells for 4 h, followed by lysis of the cells overnight by addition of the detergent. The dye formed was detected at 570 nm (Infinite M1000 pro, Tecan). The measured data were used to calculate the IC50 of the growth inhibition using the DRC (dose response curve). […]
In general terms: Tetrazolium dyes change colour on reduction, which living cells bring about.

In test [2] the target is T1, TWEAKR (Homo sapiens, UniProt Q9NP84).
T1 construct: endogenous in cells; host or cells: HT29 (also WiDr, A253, NCI-H322, 786-O)
T1 sequence (Q9NP84 28-129): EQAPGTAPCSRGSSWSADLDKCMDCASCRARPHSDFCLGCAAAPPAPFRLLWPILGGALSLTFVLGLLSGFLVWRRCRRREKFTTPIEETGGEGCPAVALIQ
The test can be described thus: Agonistic activity of anti-TWEAKR antibodies. It is filed as cell-based. An excerpt:
In this regard, one embodiment of the invention is the provision of antibodies or antigen-binding antibody fragments thereof binding specifically to a TWEAKR at a new epitope, distinguished by selective binding to aspartate (D) at position 47 (D47) of TWEAKR (SEQ ID NO: 169; see also FIG. 1). The identified dependencies of certain TWEAKR amino acids for antibody interaction correlate with the agonistic activity determined for these antibodies. […] Thus, TWEAK binds to a similar, but distinguishable binding site (FIG. 7). Accordingly, the antibodies of the present invention, which show strong agonistic activity, bind to a new epitope (as a function of D47) which is associated with very strong agonistic activity.

For orientation: IC50 means the midpoint of a concentration-inhibition curve. As to `CC(C)(C)[C@H](c1cc(-c2cc(F)ccc2F)cn1Cc1ccccc1)N(CC[C@H](N)C(=O)NCCNC(=O)CNC(=O)CC(SC[C@H](N)C(=O)O)C(=O)O)C(=O)CO` (stereo partly drawn) [Example M2-1, 4-[(2-{[2-({(2S)-2-Amino-4-[{(1R)-1-[1-benzyl-4-(2,5-difluorophenyl)-1H-pyrrol-2-yl]-2,2-dimethylpropyl}(glycoloyl)amino]butanoyl}amino)ethyl]amino}-2-oxoethyl)amino]-2-{[(2R)-2-amino-2-carboxyethyl]sulphanyl}-4-oxobutanoic acid/trifluoroacetic acid (1:1)], in test [1] (96 h incubation), the IC50 was found to be 265 nM.

Regarding `CC(C)(C)[C@H](c1cc(-c2cc(F)ccc2F)cn1Cc1ccccc1)N(CCCN)C(=O)CO` [Example M9, N-(3-Aminopropyl)-N-{(1R)-1-[1-benzyl-4-(2,5-difluorophenyl)-1H-pyrrol-2-yl]-2,2-dimethylpropyl}-2-hydroxyacetamide], in test [1] (Homo sapiens, NCI-H292, 96 h incubation), the IC50 worked out at 0.924 nM.

B1: PLD-192: "PLD-192 shows moderate agonistic activity and binds as a function of R56 to the cysteine-rich domain, but opposite of the TWEAK ligand site" (antibody, chains of the INN, looked up, V domains shown)
VH: EVQLVESGGGLVQPGGSLRLSCAASGFTFSSYWMSWVRQAPGKGLEWVAEIRLKSDNYATHYAESVKGRFTISRDDSKNSLYLQMNSLRAEDTAVYYCTGYYADAMDYWGQGTLVTVSS
VL: DIQMTQSPSSLSASVGDRVTITCRASQSVSTSSYSYMHWYQQKPGKAPKLLIKYASNLESGVPSRFSGSGSGTDFTLTISSLQPEDFATYYCQHSWEIPYTFGGGTKVEIK
In the case of B1, in test [2], the Agonistic activity entry is “moderate agonistic activity”.
